Experimental data as given in ChEMBL document CHEMBL1150068, “Antimalarial activity of sesquiterpenes from the marine sponge Acanthella klethra” (J Nat Prod, 1992).
≈ marks a conversion by molar mass, not a printed value.

Assays:
[1] = tested on: KB; assay: Cytotoxicity against human KB cells; assay type: cell-based
[2] = tested on: Plasmodium falciparum; assay: Antimalarial activity against chloroquine-sensitive Plasmodium falciparum D6; assay type: functional, organism-based
[3] = tested on: Plasmodium falciparum; assay: Antimalarial activity against chloroquine-resistant Plasmodium falciparum W2; assay type: functional, organism-based

## [C-]#[N+][C@@H]1[C@H](C(C)C)CC[C@@H](C)[C@@]12C=C(C)CC2 [AXISONITRILE 3]
[1]
  IC50: > 20 µg/mL
[2]
  IC50: 0.142 µg/mL (≈ 0.614 µM)
[3]
  IC50: 0.0165 µg/mL (≈ 0.0713 µM)

## C[C@H]1CCC[C@]2(C)CC[C@H](C(C)(C)N=C=S)C=C12
[1]
  IC50: > 20 µg/mL
[2]
  IC50: 2.24 µg/mL (≈ 8.5 µM)
[3]
  IC50: 0.61 µg/mL (≈ 2.32 µM)

## C=C[C@H]1CN2CC[C@H]1C[C@H]2[C@H](O)c1ccnc2ccc(OC)cc12 [QUININE]
[1]
  IC50: > 20 µg/mL
[2]
  IC50: 0.0102 µg/mL (≈ 0.0314 µM)
[3]
  IC50: 0.0238 µg/mL (≈ 0.0734 µM)

## CC1=C[C@]2(CC1)[C@H](C)CC[C@@H](C(C)C)[C@H]2N=C=S
[1]
  IC50: > 20 µg/mL
[2]
  IC50: 12.3 µg/mL (≈ 46.8 µM)
[3]
  IC50: 3.11 µg/mL (≈ 11.8 µM)

## C=C(C)[C@@H]1CC[C@@]2(C)CCC[C@@](C)(N=C=S)[C@@H]2C1
[1]
  IC50: > 20 µg/mL
[2]
  IC50: > 10 µg/mL
[3]
  IC50: > 10 µg/mL

## C=C(C)[C@H]1CC[C@@]2(C)CCC[C@@](C)(N=C=S)[C@@H]2C1
[1]
  IC50: > 20 µg/mL
[2]
  IC50: 4 µg/mL (≈ 15.2 µM)
[3]
  IC50: 0.55 µg/mL (≈ 2.09 µM)

## C[C@@H]1CC[C@H]2[C@@H](C)C(=O)O[C@@H]3O[C@@]4(C)CC[C@@H]1[C@]32OO4 [ARTEMISININ]
[1]
  IC50: > 20 µg/mL
[2]
  IC50: 0.0041 µg/mL (≈ 0.0145 µM)
[3]
  IC50: 0.00071 µg/mL (≈ 0.00251 µM)

## OC(c1cc(C(F)(F)F)nc2c(C(F)(F)F)cccc12)C1CCCCN1 (stereo not drawn) [MEFLOQUINE]
[2]
  IC50: 0.0082 µg/mL (≈ 0.0217 µM)
[3]
  IC50: 0.00049 µg/mL (≈ 0.0013 µM)
